Experimental data from ChEMBL document CHEMBL4680337, “Synthetic 1,4-Naphthoquinones inhibit P2X7 receptors in murine neuroblastoma cells” (Bioorg Med Chem, 2021).
pEC50: −log10 of the molar value. The source made the active and inactive calls. The rule behind the calls is not given here.

Assays:
Type in all cases: cell-based
[1] = biological target: T1, P2X purinoceptor 7 (Mus musculus) (UniProt Q9Z1M0); test: Antagonist activity at P2X7R in mouse N2a cells assessed as reduction in ATP-induced calcium influx at 5 uM incubated for 1 hr by Fura-2AM dye based spectrofluorometry relative to control
T1 sequence (whole entry): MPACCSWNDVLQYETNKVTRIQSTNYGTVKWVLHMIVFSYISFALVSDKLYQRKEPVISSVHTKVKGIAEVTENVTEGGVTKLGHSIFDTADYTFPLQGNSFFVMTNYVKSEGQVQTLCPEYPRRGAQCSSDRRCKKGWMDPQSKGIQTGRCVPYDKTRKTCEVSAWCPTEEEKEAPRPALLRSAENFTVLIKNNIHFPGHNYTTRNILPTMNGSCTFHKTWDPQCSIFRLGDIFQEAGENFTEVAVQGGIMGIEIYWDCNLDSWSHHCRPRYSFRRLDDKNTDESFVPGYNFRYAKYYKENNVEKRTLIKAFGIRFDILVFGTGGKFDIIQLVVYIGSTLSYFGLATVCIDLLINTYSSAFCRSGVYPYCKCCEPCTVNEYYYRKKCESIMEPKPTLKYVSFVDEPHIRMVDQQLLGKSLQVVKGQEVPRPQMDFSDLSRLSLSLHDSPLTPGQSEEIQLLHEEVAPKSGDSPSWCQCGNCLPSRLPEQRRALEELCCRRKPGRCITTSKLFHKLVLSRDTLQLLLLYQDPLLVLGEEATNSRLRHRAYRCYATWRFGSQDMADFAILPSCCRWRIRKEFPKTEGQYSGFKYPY

[2] = biological target: T1, P2X purinoceptor 7 (Mus musculus); test: Antagonist activity at P2X7R in mouse N2a cells assessed as inhibition of ATP-induced NO production by measuring NO level at 10 uM incubated for 1 hr by using DAF-FM probe based fluorescence assay relative to control; set-up: scale not given: the % may be the effect or the level left
[3] = system: N2a; test: Cytotoxicity against mouse N2a cells assessed as reduction in cell viability incubated for 24 hrs by MTT assay
[4] = biological target: T1, P2X purinoceptor 7 (Mus musculus); test: Antagonist activity at P2X7R in mouse N2a cells assessed as reduction in ATP-induced YO-PRO-1 uptake by cells incubated for 1 hr by fluorescence based assay; conditions: dose 0.1-10 µM
[5] = biological target: T1, P2X purinoceptor 7 (Mus musculus); test: Antagonist activity at P2X7R in mouse N2a cells assessed as reduction in ATP-induced YO-PRO-1 uptake by cells at 5 uM incubated for 1 hr by fluorescence imaging based laser scanning microscopic analysis
[6] = biological target: T1, P2X purinoceptor 7 (Mus musculus); test: Antagonist activity at P2X7R in mouse N2a cells assessed as reduction in ATP-induced EtBr uptake by cells incubated for 1 hr by fluorescence based assay relative to control; conditions: concentration not given here
[7] = biological target: T1, P2X purinoceptor 7 (Mus musculus); test: Antagonist activity at P2X7R in mouse N2a cells assessed as cytoprotective activity against ATP-induced cell death by measuring increase in cell viability at 1 uM incubated for 1 hr followed by ATP addition and measured after 48 hrs by MTT assay relative to control; conditions: time 49.0 hrs
[8] = biological target: T1, P2X purinoceptor 7 (Mus musculus); test: Antagonist activity at P2X7R in mouse N2a cells assessed as inhibition of ATP-induced ROS production at 0.1 uM incubated for 1 hr by using H2DCF-DA probe based fluorescence assay relative to control
[9] = biological target: T1, P2X purinoceptor 7 (Mus musculus); test: Antagonist activity at P2X7R in mouse N2a cells assessed as reduction in ATP-induced YO-PRO-1 uptake by cells at 10 uM incubated for 1 hr by fluorescence based assay relative to control
[10] = biological target: T1, P2X purinoceptor 7 (Mus musculus); test: Antagonist activity at P2X7R in mouse N2a cells assessed as reduction in ATP-induced EtBr uptake by cells at 0.1 to 10 uM incubated for 1 hr by fluorescence based assay; conditions: dose 0.1-10 µM
[11] = biological target: T1, P2X purinoceptor 7 (Mus musculus); test: Antagonist activity at P2X7R in mouse N2a cells assessed as inhibition of ATP-induced NO production at 0.1 to 10 uM incubated for 1 hr by using DAF-FM probe based fluorescence assay; conditions: dose 0.1-10 µM
[12] = biological target: T1, P2X purinoceptor 7 (Mus musculus); test: Antagonist activity at P2X7R in mouse N2a cells assessed as inhibition of ATP-induced NO production by measuring NO level at 1 uM incubated for 1 hr by using DAF-FM probe based fluorescence assay relative to control; set-up: scale not given: the % may be the effect or the level left
[13] = biological target: T1, P2X purinoceptor 7 (Mus musculus); test: Antagonist activity at P2X7R in mouse N2a cells assessed as inhibition of ATP-induced ROS production at 1 uM incubated for 1 hr by using H2DCF-DA probe based fluorescence assay relative to control
[14] = biological target: T1, P2X purinoceptor 7 (Mus musculus); test: Antagonist activity at P2X7R in mouse N2a cells assessed as cytoprotective activity against ATP-induced cell death by measuring increase in cell viability at 0.1 to 5 uM incubated for 1 hr followed by ATP addition and measured after 48 hrs by MTT assay; conditions: dose 0.1-5 µM, time 49.0 hrs
[15] = biological target: T1, P2X purinoceptor 7 (Mus musculus); test: Antagonist activity at P2X7R in mouse N2a cells assessed as inhibition of ATP-induced ROS production at 50 uM incubated for 1 hr by using H2DCF-DA probe based fluorescence assay
[16] = biological target: T1, P2X purinoceptor 7 (Mus musculus); test: Antagonist activity at P2X7R in mouse N2a cells assessed as reduction in ATP-induced calcium influx at 50 uM incubated for 1 hr by Fura-2AM dye based spectrofluorometry
[17] = biological target: T1, P2X purinoceptor 7 (Mus musculus); test: Antagonist activity at P2X7R in mouse N2a cells assessed as inhibition of ATP-induced NO production at 50 uM incubated for 1 hr by using DAF-FM probe based fluorescence assay
[18] = biological target: T1, P2X purinoceptor 7 (Mus musculus); test: Antagonist activity at P2X7R in mouse N2a cells assessed as reduction in ATP-induced calcium influx at 10 uM incubated for 1 hr by Fura-2AM dye based spectrofluorometry relative to control
[19] = biological target: T1, P2X purinoceptor 7 (Mus musculus); test: Antagonist activity at P2X7R in mouse N2a cells assessed as inhibition of ATP-induced ROS production at 10 uM incubated for 1 hr by using H2DCF-DA probe based fluorescence assay
[20] = biological target: T1, P2X purinoceptor 7 (Mus musculus); test: Antagonist activity at P2X7R in mouse N2a cells assessed as cytoprotective activity against ATP-induced cell death by measuring increase in cell viability at 10 uM incubated for 1 hr followed by ATP addition and measured after 48 hrs by MTT assay relative to control; conditions: time 49.0 hrs
[21] = biological target: T1, P2X purinoceptor 7 (Mus musculus); test: Antagonist activity at P2X7R in mouse N2a cells assessed as inhibition of ATP-induced NO production at 10 uM incubated for 1 hr by using DAF-FM probe based fluorescence assay
[22] = biological target: T1, P2X purinoceptor 7 (Mus musculus); test: Antagonist activity at P2X7R in mouse N2a cells assessed as reduction in ATP-induced calcium influx at 5 uM incubated for 1 hr by Fluo-3AM dye based laser scanning microscopy

Which inhibition [1] does the source give for `Clc1cccc(-c2nnnn2Cc2cccnc2)c1Cl` here?
The inhibition was 90%.

With `O=C1C2=C(S[C@H]3O[C@@H](CO)[C@H](O)[C@@H](O)[C@@H]3O2)C(=O)c2ccccc21` as the molecule, how does the Activity [2] read?
Its Activity is 44.5%.

What about the pEC50 [3] of the same molecule?
Its pEC50 is 4.53.

And the inhibition [4]?
The inhibition was “Dose-dependent effect”.

And the inhibition [5]?
The inhibition was “Active”.

What about the inhibition [1] of the same molecule?
The inhibition was 32.7%.

And the inhibition [6]?
The inhibition was 42.6%.

What about the Activity [7] of the same molecule?
The Activity was 19.6%.

What about the inhibition [8] of the same molecule?
The inhibition was 66.3%.

And the inhibition [9]?
The inhibition was 46.2%.

And the inhibition [10]?
Its inhibition is “Active”.

With `COC1=C(S[C@@H]2O[C@H](CO)[C@@H](O)[C@H](O)[C@H]2O)C(=O)c2ccccc2C1=O` as the molecule, how does the pEC50 [3] read?
The pEC50 was 4.12.

What about the inhibition [4] of the same molecule?
Its inhibition is “Dose-dependent effect”.

And the inhibition [11]?
Its inhibition is “inactive”.

What about the inhibition [1] of the same molecule?
The inhibition was 15.1%.

And the inhibition [6]?
The inhibition was 34.8%.

And the Activity [7]?
The Activity was 22.2%.

What about the inhibition [8] of the same molecule?
The inhibition was 69.8%.

And the inhibition [9]?
Its inhibition is 60.9%.

With `COC1=C(S[C@@H]2O[C@H](COC(C)=O)[C@@H](OC(C)=O)[C@H](OC(C)=O)[C@H]2OC(C)=O)C(=O)c2c(O)c(C)c(C)c(O)c2C1=O` as the molecule, how does the Activity [12] read?
The Activity was 56.8%.

What about the pEC50 [3] of the same molecule?
The pEC50 was 4.75.

What about the inhibition [4] of the same molecule?
The inhibition was “Dose-dependent effect”.

And the inhibition [13]?
The inhibition was 70.9%.

What about the Activity [14] of the same molecule?
The Activity was “inactive”.

What about the inhibition [1] of the same molecule?
The inhibition was “inactive”.

And the inhibition [6]?
The inhibition was 25.2%.

And the inhibition [9]?
Its inhibition is 54.1%.

With `Cc1cc(/N=N/c2ccc(S(=O)(=O)O)cc2S(=O)(=O)O)c(COP(=O)(O)O)c(C=O)c1O` as the molecule, how does the inhibition [15] read?
Its inhibition is “Active”.

And the inhibition [16]?
Its inhibition is “Active”.

And the inhibition [17]?
The inhibition was “Active”.

Which inhibition [18] does the source give for `CCOc1ccc(Nc2ccc(/C(=C3C=C/C(=[N+](/CC)Cc4cccc(S(=O)(=O)[O-])c4)C=C/3C)c3ccc(N(CC)Cc4cccc(S(=O)(=O)O)c4)cc3C)cc2)cc1` here?
The inhibition was 46%.

What about the inhibition [19] of the same molecule?
Its inhibition is “Active”.

And the Activity [20]?
The Activity was 14.6%.

And the inhibition [9]?
Its inhibition is “Active”.

What about the inhibition [21] of the same molecule?
Its inhibition is “Active”.

How did the Activity [12] turn out when `Cc1c(C)c(O)c2c(c1O)C(=O)C1=C(S[C@H]3O[C@@H](CO)[C@H](O)[C@@H](O)[C@@H]3O1)C2=O` was run?
Its Activity is 48.5%.

And the inhibition [22]?
Its inhibition is “Active”.

And the pEC50 [3]?
The pEC50 was 4.65.

And the inhibition [13]?
The inhibition was 58.4%.

What about the Activity [14] of the same molecule?
The Activity was “inactive”.

And the inhibition [1]?
The inhibition was 36%.

And the inhibition [6]?
Its inhibition is 18.3%.

And the inhibition [9]?
The inhibition was 20.7%.
